From EP4389751A1, “HETEROCYCLIC COMPOUNDS AND USES THEREOF” (Kumquat Biosciences Inc., priority 2021, dated 2024) come the findings set out here.

In this test the target is T1, K-Ras G12S (Homo sapiens, UniProt P01116, G12S).
T1 construct: made in house; host or cells: E. coli (e.g., BL21 (DE3))
The test is described as follows: HTRF assay of the K-Ras / SOS1 interaction. The following applies: IC50 (against K-Ras G12D) to IC50 (against K-Ras G12S). The class given is biochemical. The source says: This assay can be also used to assess a selective inhibition or reduction of signaling output of a mutant Ras protein relative to a wildtype, or relative to a different mutant Ras protein. For example, the equilibrium interaction of wildtype Kras or K-Ras mutant (e.g., wildtype or a mutant thereof including those mentioned in Example 6) with SOS1 (e.g., hSOS1) can be assessed as a proxy or an indication for a subject compound's ability to bind and inhibit Ras protein. HTRF assay detects from (i) a fluorescence resonance energy transfer (FRET) donor (e.g., antiGST-Europium) that is bound to GST-tagged K-Ras mutant to (ii) a FRET acceptor (e.g., anti-6His-XL665) bound to a His-tagged hSOS 1.
The assay buffer can contain ~5 mM HEPES pH 7.4, -150 mM NaCI, - 1 mM DTT, 0.05% BSA and 0.0025% (v/v) Igepal. A Ras working solution is prepared in an assay buffer containing typically a suitable amount of the protein construct (e.g., GST-tagged K-Ras mutant) and the FRET donor (e.g., antiGST-Eu(K) from Cisbio, France). A SOS1 working solution is prepared in an assay buffer containing suitable amount of the protein construct (e.g., His-hSOS1) and the FRET acceptor (e.g., anti-6His-XL665 from Cisbio, France). A suitable amount of the protein construct will depend on the range of activity or range of IC50 values being detected or under investigation. For detecting IC50 within a range of 500 nM, the protein constructs of the same range of molarity can be utilized.
A fixed volume of DMSO with or without test compound is transferred into a 384-well plate. Ras working solution is added to all wells of the test plate. SOS1 working solution is added to all wells except for those that are subsequently filled the inhibitor control solution. Upon incubation for about 10 minutes or longer, the fluorescence is measured with a M1000Pro plate reader (Tecan) using HTRF detection (excitation 337nm, emission 1 : 620nm, emission 2: 665nm). Compounds are tested in duplicates at different concentrations (for example, 10 µM, 2.5 µM, 0.63 µM, 0.16 µM, 0.04 µM, 0.01 µM test compound). The ratiometric data (i.e., emission 2 divided by emission 1) is used to calculate IC50 values against Ras using GraphPad Prism (GraphPad software). Following this general procedure, samples were tested with or without a subject compound disclosed herein including compounds exemplified in Table 3 to assess their abilities to inhibit K-Ras G12S relative to another mutant (e.g., K-Ras G12D). Signaling output measured in terms of IC50 values can be obtained, a ratio of IC50 against one mutant relative to another mutant can be calculated. For instance, a selective reduction of K-Ras G12S signaling output can be evidenced by a ratio greater than one. In particular, a selective reduction of K-Ras G12S signaling relative to K-Ras G12D signaling is evidenced as the ratio of IC50 (against K-Ras G12D) to IC50 (against K-Ras G12S) is greater than 1. […]
On the technique in general: TR-FRET usually uses a lanthanide donor and a delayed reading to cut background.

As for `Nc1nc2c(-c3c(Cl)cc4c(NC5CCN(C(=O)Nc6ccncn6)CC5)nc(OC[C@@]56CCCN5C[C@H](F)C6)nc4c3F)ccc(F)c2s1` [Compound A147, 4-((7-(2-amino-7-fluorobenzo[d]thiazol-4-yl)-6-chloro-8-fluoro-2-(((2R,7aS)-2-fluorotetrahydro-1H-pyrrolizin-7a(5H)-yl)methoxy)quinazolin-4-yl)amino)-N-(pyrimidin-4-yl)piperidine-1-carboxamide], the “Ratio of IC50 KRAS G12D vs. IC50 KRAS G12S” value (“Ratio” below) is on record as “A (A: indicates that the ratio of IC50 against KrasG12D vs. IC50 against KrasG12S is 1-fold or greater)”.
Regarding `N#Cc1c(N)sc2c(F)ccc(-c3c(Cl)cc4c(N5CCN(CC6CC6)C6(CN(C(=O)n7cncn7)C6)C5)nc(OC[C@@]56CCCN5C[C@H](F)C6)nc4c3F)c12` [Compound A139, 2-amino-4-(6-chloro-4-(5-(cyclopropylmethyl)-2-(1H-1,2,4-triazole-1-carbonyl)-2,5,8-triazaspiro[3.5]nonan-8-yl)-8-fluoro-2-(((2R,7aS)-2-fluorotetrahydro-1H-pyrrolizin-7a(5H)-yl)methoxy)quinazolin-7-yl)-7-fluorobenzo[b]thiophene-3-carbonitrile], the “Ratio” value is listed as “A (A: indicates that the ratio of IC50 against KrasG12D vs. IC50 against KrasG12S is 1-fold or greater)”.
The entry for `Nc1nc2c(-c3c(Cl)cc4c(N5C[C@H]6CC[C@@H](C5)N6C(=O)n5ccc(F)n5)nc(OC[C@@]56CCCN5C[C@H](F)C6)nc4c3F)ccc(F)c2s1` [Compound A214, ((1R,5S)-3-(7-(2-amino-7-fluorobenzo[d]thiazol-4-yl)-6-chloro-8-fluoro-2-(((2R,7aS)-2-fluorotetrahydro-1H-pyrrolizin-7a(5H)-yl)methoxy)quinazolin-4-yl)-3,8-diazabicyclo[3.2.1]octan-8-yl)(3-fluoro-1H-pyrazol-1-yl)methanone] is “A (A: indicates that the ratio of IC50 against KrasG12D vs. IC50 against KrasG12S is 1-fold or greater)”; for “1-(7-(7-(2-amino-7-fluorobenzo[d]thiazol-4-yl)-6-chloro-8-fluoro-2-(((2R,7aS)-2-fluorotetrahydro-1H-pyrrolizin-7a(5H)-yl)methoxy)quinazolm-4-yl)-2,7-diazaspiro[3.5]nonane-2-carbonyl)-1H-imidazole-4-carbonitrile [Compound A179]” it is “A (A: indicates that the ratio of IC50 against KrasG12D vs. IC50 against KrasG12S is 1-fold or greater)”.
Regarding `N#Cc1c(N)sc2c(F)ccc(-c3c(Cl)cc4c(OC5CCN(C(=O)Nc6nccs6)C5)nc(OC[C@@]56CCCN5C[C@H](F)C6)nc4c3F)c12` (stereo partly drawn) [Compound A150, 3-((7-(2-amino-3-cyano-7-fluorobenzo[b]thiophen-4-yl)-6-chloro-8-fluoro-2-(((2R,7aS)-2-fluorotetrahydro-1H-pyrrolizin-7a(5H)-yl)methoxy)quinazolin-4-yl)oxy)-N-(thiazol-2-yl)pyrrolidine-1-carboxamide], the “Ratio” value is given as “A (A: indicates that the ratio of IC50 against KrasG12D vs. IC50 against KrasG12S is 1-fold or greater)”.
Turning to `N#Cc1c(N)sc2c(F)ccc(-c3c(Cl)cc4c(N5CCOC6(CN(C(=O)n7cncn7)C6)C5)nc(OC[C@@]56CCCN5C[C@H](F)C6)nc4c3F)c12` [Compound A232, 4-(4-(2-(1H-1,2,4-triazole-1-carbonyl)-5-oxa-2,8-diazaspiro[3.5]nonan-8-yl)-6-chloro-8-fluoro-2-(((2R,7aS)-2-fluorotetrahydro-1H-pyrrolizin-7a(5H)-yl)methoxy)quinazolin-7-yl)-2-amino-7-fluorobenzo[b]thiophene-3-carbonitrile], the “Ratio” value was “A (A: indicates that the ratio of IC50 against KrasG12D vs. IC50 against KrasG12S is 1-fold or greater)”.
For `Nc1nc2c(-c3c(Cl)cc4c(N5CC6CCC5CN6C(=O)n5cncn5)nc(OC[C@@]56CCCN5C[C@H](F)C6)nc4c3F)ccc(F)c2s1` (stereo partly drawn) [Compound A192, (5-(7-(2-amino-7-fluorobenzo[d]thiazol-4-yl)-6-chloro-8-fluoro-2-(((2R,7aS)-2-fluorotetrahydro-1H-pyrrolizin-7a(5H)-yl)methoxy)quinazolin-4-yl)-2,5-diazabicyclo[2.2.2]octan-2-yl)(1H-1,2,4-triazol-1-yl)methanone], the “Ratio” value was “A (A: indicates that the ratio of IC50 against KrasG12D vs. IC50 against KrasG12S is 1-fold or greater)”.
Consider `C[C@H](Oc1nc(N2CCN(C(=O)Nc3nccs3)CC(O)C2)c2cc(Cl)c(-c3ccc(F)c4sc(N)c(C#N)c34)c(F)c2n1)[C@@H]1CCCN1C` (stereo partly drawn) [Compound A118, 4-(7-(2-amino-3-cyano-7-fluorobenzo[b]thiophen-4-yl)-6-chloro-8-fluoro-2-((S)-1-((S)-1-methylpyrrolidin-2-yl)ethoxy)quinazolin-4-yl)-6-hydroxy-N-(thiazol-2-yl)-1,4-diazepane-1-carboxamide], for which the “Ratio” value was “A (A: indicates that the ratio of IC50 against KrasG12D vs. IC50 against KrasG12S is 1-fold or greater)”.
For the compound `N#Cc1nccn1C(=O)N1CCC(Nc2nc(OC[C@@]34CCCN3C[C@H](F)C4)nc3c(F)c(-c4ccc(F)c5sc(N)nc45)c(Cl)cc23)CC1` [Compound A155, 1-(4-((7-(2-amino-7-fluorobenzo[d]thiazol-4-yl)-6-chloro-8-fluoro-2-(((2R,7aS)-2-fluorotetrahydro-1H-pyrrolizin-7a(5H)-yl)methoxy)quinazolin-4-yl)amino)piperidine-1-carbonyl)-1H-imidazole-2-carbonitrile], the “Ratio” value is reported as “A (A: indicates that the ratio of IC50 against KrasG12D vs. IC50 against KrasG12S is 1-fold or greater)”.
As to `CO[C@@H]1CN(C)C[C@H]1Oc1nc(N2CC3CCC(C2)N3C(=O)n2cc(C#N)cn2)c2cc(Cl)c(-c3ccc(F)c4sc(N)nc34)c(F)c2n1` [Compound A248, 1-(3-(7-(2-amino-7-fluorobenzo[d]thiazol-4-yl)-6-chloro-8-fluoro-2-(((3R,4R)-4-methoxy-1-methylpyrrolidin-3-yl)oxy)quinazolin-4-yl)-3,8-diazabicyclo[3.2.1]octane-8-carbonyl)-1H-pyrazole-4-carbonitrile], the “Ratio” value is “A (A: indicates that the ratio of IC50 against KrasG12D vs. IC50 against KrasG12S is 1-fold or greater)”.
The entry for `CN1CCC[C@H]1COc1nc(N2CC3CCC(C2)N3C(=O)n2cc(C#N)cn2)c2cc(Cl)c(-c3ccc(F)c4sc(N)nc34)c(F)c2n1` [Compound A259, 1-(3-(7-(2-amino-7-fluorobenzo[d]thiazol-4-yl)-6-chloro-8-fluoro-2-(((S)-1-methylpyrrolidin-2-yl)methoxy)quinazolin-4-yl)-3,8-diazabicyclo[3.2.1]octane-8-carbonyl)-1H-pyrazole-4-carbonitrile] is “A (A: indicates that the ratio of IC50 against KrasG12D vs. IC50 against KrasG12S is 1-fold or greater)”.
The entry for `N#Cc1cnn(C(=O)N2C3CCC2CN(c2nc(OC[C@@]45CCCN4C[C@H](F)C5)nc4c(F)c(-c5cc(O)cc6ccccc56)ccc24)C3)c1` [Compound A120, 1-(3-(8-fluoro-2-(((2R,7aS)-2-fluorotetrahydro-1H-pyrrolizin-7a(5H)-yl)methoxy)-7-(3-hydroxynaphthalen-1-yl)quinazolin-4-yl)-3,8-diazabicyclo[3.2. 1]octane-8-carbonyl)-1H-pyrazole-4-carbonitrile] is “A (A: indicates that the ratio of IC50 against KrasG12D vs. IC50 against KrasG12S is 1-fold or greater)”.
Consider `Nc1nc2c(-c3c(Cl)cc4c(NC5CCN(C(=O)n6cccn6)CC5)nc(OC[C@@]56CCCN5C[C@H](F)C6)nc4c3F)ccc(F)c2s1` [Compound A254, (4-((7-(2-amino-7-fluorobenzo[d]thiazol-4-yl)-6-chloro-8-fluoro-2-(((2R,7aS)-2-fluorotetrahydro-1H-pyrrolizin-7a(5H)-yl)methoxy)quinazolin-4-yl)amino)piperidin-1-yl)(1H-pyrazol-1-yl)methanone], for which the “Ratio” value is listed as “A (A: indicates that the ratio of IC50 against KrasG12D vs. IC50 against KrasG12S is 1-fold or greater)”.
